Source: BindingDB's records for doi:10.1021/jm500629e (Mcgill University, 2014)

What follows are compounds tested against T1, Farnesyl pyrophosphate synthase (Homo sapiens, UniProt P14324) (assay: Inhibition of FPPS (unknown origin)).
T1 sequence (P14324 whole entry): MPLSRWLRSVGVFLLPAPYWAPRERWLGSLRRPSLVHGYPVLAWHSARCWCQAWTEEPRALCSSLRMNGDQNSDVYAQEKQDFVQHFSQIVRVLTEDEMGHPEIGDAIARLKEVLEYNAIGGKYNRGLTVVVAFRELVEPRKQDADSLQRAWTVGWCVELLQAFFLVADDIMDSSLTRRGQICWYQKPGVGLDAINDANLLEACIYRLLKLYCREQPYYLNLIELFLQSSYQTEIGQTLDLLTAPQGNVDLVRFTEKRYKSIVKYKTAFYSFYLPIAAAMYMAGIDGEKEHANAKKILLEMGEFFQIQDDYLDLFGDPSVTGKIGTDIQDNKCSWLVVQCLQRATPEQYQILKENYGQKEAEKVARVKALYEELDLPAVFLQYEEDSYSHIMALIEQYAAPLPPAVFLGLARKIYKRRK

Compound	IC50 [nM]
Cc1ccc(-c2cc3c(NCC(=O)O)ncnc3s2)cc1	> 20000
Cc1ccc(-c2cc3c(NCP(=O)(O)O)ncnc3s2)cc1Cl	3300
O=P(O)(O)C(Nc1ncnc2sc(-c3ccc(OC4CC4)cc3)cc12)P(=O)(O)O	200
Cc1ccc(-c2cc3c(NCCP(=O)(O)O)ncnc3s2)cc1	200
Cc1ccc(-c2cc3c(NCP(=O)(O)O)ncnc3s2)cc1	4500
Cc1ccc(-c2cc3c(NC(P(=O)(O)O)P(=O)(O)O)ncnc3s2)cc1	200
Cc1ccc(-c2cc3c(NC(c4ccccc4)P(=O)(O)O)ncnc3s2)cc1Cl (stereo not given)	1200
O=P(O)(O)CCc1cccnc1	200
Cc1ccc(-c2cc3c(CCP(=O)(O)O)ncnc3s2)cc1	200
O=P(O)(O)C(Cc1cccnc1)P(=O)(O)O [(1-phosphono-2-pyridin-3-yl-ethyl)-phosphonic acid]	200
